Experimental data reported in PMC11125197, “Evaluation of Drug Blood-Brain-Barrier Permeability Using a Microfluidic Chip” (Pharmaceutics, 2024).

Columns and labels:
[1] = system: human BBB-on-a-chip (hBMEC, HBVP, NHA); assay: BBB-on-a-chip permeability, basolateral to apical (brain to blood channel), LC-MS/MS; format: in vitro ADME; details: 1 μM in top channel
Description: Css, channel , the concentration in the channel at the steady state, was estimated using a simple Emax model Equation (2) with time (h) on the x-axis and concentration (ng/mL) on the y-axis.

in vitro = details: human
Description: (§1) The design and construction of the BBB-on-a-chip were as reported previously. The chip (Emulate, #OCK-12) was composed of two parallel microchannels (top; 1 × 1 mm, bottom; 1 × 0.2 mm) separated by a porous polydimethysiloxane (PDMS) membrane (diameter, 7 μm; spacing, 40 μm; thickness, 50 μm, resulting in 2% porosity over a surface area of 0.171 cm^2 separating the two channels). The membrane was activated according to the manufacturer’s instructions and coated with the mixture of laminin (1 mg/mL), collagen IV (1 mg/mL), and fibronectin (1 mg/mL) in DPBS (Figure 1). Coated chips were incubated at 4 °C overnight, then at 37 °C for 1 h before seeding the cells. hBMEC cells (9 × 10^5 cells/mL) were 20 µL seeded into the bottom channel of the chip. The chip was immediately inverted and incubated at 37 °C for 4 h. After 4 h, hBMECs were prepared as previously described and re-injected into the bottom channel to mimic the vascular structure, as shown in right panel of Figure 2A.
(§2) Ten drugs (Table 1) were selected for BBB permeability analysis (CAF, CBZ, DES, LPM, CET, VIN, LP, NZD, DPZ, and SIM). […] We performed transport experiments for the basolateral-to-apical side and the apical-to-basolateral side.
(§3) Fifteen microliters of blood-and-brain medium was mixed with 135 μL internal standard (IS) solution (5 ng/mL disopyramide in acetonitrile). The mixture was vortexed briefly and centrifuged at 15,000 rpm for 5 min at 4 °C. […] Mobile phase A was 0.1% formic acid in water and mobile phase B was 0.1% formic acid in acetonitrile. Chromatographic separation was performed on a Luna C18 column (100 × 2 mm (i.d.) 3 μm, Phenomenex) with a Security Guard C18 guard column (4 mm × 20 mm (i.d.), Phenomenex) by gradient elution at a flow rate of 0.3 mL/min (Table 2). The mass spectrometer was operated in positive ion mode for all compounds, and the carryover was checked by the injection of a blank in between samples.
(§4) (1) Ctn,channel=Atn−1, channel+C(tn−tn−1),channel·tn−tn−1·channel flow rate/tn·channel flow rate, where Achannel is the drug amount of the channel; tn is time point; C(tn−tn−1),channel is the concentration of drug pooled from tn to tn−1; channel flow rate, fluid flow rate in channel;
(§5) (2) Cchannel=Css, channel · t/CT50, channel+t, where CT50, channel is the time at a half steady state concentration of channel; t, time.
(§6) Kp , the partition coefficient, in the BBB-on-a-chip was calculated by dividing the calculated Css, brain by the Css, blood value of the drug passing through the bottom channel, as shown in Equation (3). (3) Kp=Css, brain/Css, blood
(§7) J represents the rate at which the amount of compound moves from the bottom channel to the top channel, which was calculated by determining the slope of the time-versus-amount curve at 0 h to the point at which a steady state (90% of Tss ) was reached. Papp can be calculated by dividing J by the surface area of the membrane (SA) separating the two channels and the initial concentration in the bottom channel. (4) Papp=J/MW/SA·C0,blood ,J=dAbrain/dt, where MW is molecular weight of each drug.

[2] = system: human BBB-on-a-chip (hBMEC, HBVP, NHA); assay: BBB-on-a-chip permeability, apical to basolateral (blood to brain channel), LC-MS/MS
Description: as §1, §2, §3, §4, §5, §6, §7

[3] = 1 μM dosed, simple Emax model fit
[4] = 1 μM dosed, simple Emax model fit, sampling 1, 4, 9, 24 h
[5] = time to reach predicted 90% Css

Structure (SMILES) | Kp (in vitro) | CT50,brain (time at half steady state concentration of brain channel) [2, 3] [h] | CT50,blood (time at half steady state concentration of blood channel) [2, 4] [h] | Cplateau,brain (concentration at plateau time of brain channel) ([2]; human) [ng/mL] | Css,blood (steady state concentration of blood channel) ([2]; human) [ng/mL] | Css,brain (steady state concentration of brain channel) ([2]; human) [ng/mL] | Papp at 24 h, 1 μM (in vitro) [×10⁻⁶ cm/s] | tplateau,brain (plateau time for brain channel) [2, 5] [h] | further results
CN(C)C(=O)C(CCN1CCC(O)(c2ccc(Cl)cc2)CC1)(c1ccccc1)c1ccccc1 [Loperamide, loperamide] | 0.0552 | 20.04 | 58.46 | 33.9736 | 684.09 | 37.75 | – | – | BBB permeability in words (basolateral to apical) [1]: high permeability; Papp (in vitro): 9.26 ×10⁻⁶ cm/s; tplateau,brain (plateau time for brain channel) ([2]; human): 180.32 h
CCc1nn(CCCN2CCN(c3cccc(Cl)c3)CC2)c(=O)n1CCOc1ccccc1 [Nefazodone, nefazodone] | – | 37.79 | 9.01 | 13.8908 | 161.89 | 15.43 | 3.84 | 340.10 | Kp at 1 μM (in vitro): 0.0953
CNCCCN1c2ccccc2CCc2ccccc21 [Desipramine, desipramine] | – | 34.47 | 57.44 | – | – | – | 32.5 | 310.22 | Css,blood (steady state concentration of blood channel) [2, 3]: 234.83 ng/mL; Css,brain (steady state concentration of brain channel) [2, 3]: 73.93 ng/mL; Cplateau,brain (concentration at plateau time of brain channel) ([2]; predicted 90% Css): 66.5383 ng/mL
Cn1c(=O)c2c(ncn2C)n(C)c1=O [Caffeine, caffeine] | 0.435 | – | – | 44.8098 | 114.47 | 49.79 | – | – | Papp (in vitro): 30 ×10⁻⁶ cm/s; Plateau reached in brain channel during the observed time [2]: reached plateau; CT50,blood (time at half steady state concentration of blood channel) ([2]; human): 2.91 h; CT50,brain (time at half steady state concentration of brain channel) ([2]; human): 2.39 h; tplateau,brain (plateau time for brain channel) ([2]; human): 21.52 h
NC(=O)N1c2ccccc2C=Cc2ccccc21 [Carbamazepine, carbamazepine] | – | 3.27 | 1.98 | 28.6749 | 112.88 | 31.86 | 15.8 | 29.41 | Kp at 1 μM (in vitro): 0.282; BBB permeability in words (apical to basolateral) ([2]; BBB-on-a-chip, 1 μM): high permeabilities
CC[C@]1(O)C[C@H]2CN(CCc3c([nH]c4ccccc34)[C@@](C(=O)OC)(c3cc4c(cc3OC)N(C=O)[C@H]3[C@@](O)(C(=O)OC)[C@H](OC(C)=O)[C@]5(CC)C=CCN6CC[C@]43[C@@H]65)C2)C1 [Vincristine, vincristine] | 0.0821 | – | 2.99 | – | 626.20 | – | – | – | Plateau reached in brain channel during the observed time ([2]; observation up to 24 h): reached plateau
Nc1nc(OC(c2ccc(-c3cccc(F)c3)cc2)C(F)(F)F)cc(-c2ccc(C[C@H](N)C(=O)O)cc2)n1 (some centres unmarked) [LP533401] | – | 0.16 | 6.80 | – | – | – | – | 1.42 | BBB permeability in words (apical to basolateral) [2]: low permeability; Papp (apparent permeability) [2]: 2.1693 10^−6cm/s; Css,blood (steady state concentration of blood channel) [2, 3]: 573.66 ng/mL; Css,brain (steady state concentration of brain channel) [2, 3]: 9.77 ng/mL; Kp (Brain/Blood), partition coefficient ([2]; human): 0.0170; Plateau reached in brain channel during the observed time ([2]; observation up to 24 h): reached plateau; Cplateau,brain (concentration at plateau time of brain channel) ([2]; predicted 90% Css): 8.7886 ng/mL
